From the METLIN SMRT retention time set (Domingo-Almenara et al. 2019)

Test: gradient 5% acetonitrile 3 min, to 50% in 2 min, to 85% in 15 min, held 3 min, 100 µL/min
Conditions: column: Zorbax Extend-C18 2.1 x 50 mm; eluents: water / acetonitrile, 0.1% formic acid
Outline: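 Pure standards were run in mixtures of ~100 molecules by HPLC coupled to a quadrupole time-of-flight mass spectrometer. The column was a Zorbax Extend-C18 (2.1 × 50 mm, 1.8 μm) at 100 μL/min, with water and acetonitrile each containing 0.1% formic acid, in positive and negative ionization mode. Dead and dwell volumes were 40 μL and 900 μL. Retention time was taken from computationally picked adduct peaks, each manually inspected, with data collected over 3 months.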

## CC(C)Oc1ccc(-c2noc(CN3N=NC4C(=O)N(c5cccc(F)c5)C(=O)C43)n2)cc1 (stereo not drawn)
  RP-LC retention time: 1050 s

## CCCc1nc(-c2c(C)cc(C)nc2NC(=O)c2ccccc2C(F)(F)F)no1
  RP-LC retention time: 951 s

## O=C(c1cn2c(n1)CSCC2)N1CCC(Cc2ccccc2)CC1
  RP-LC retention time: 720 s

## Clc1ccc(-c2ccc(CNCC3CCCO3)o2)cc1 (stereo not drawn)
  RP-LC retention time: 688 s

## CCCN(C)c1nccnc1OC1CCN(C(=O)C2CCC2)C1 (stereo not drawn)
  RP-LC retention time: 765 s

## COc1ccc(C(C)NC(=O)C2CCN(c3cnc4nccnc4c3)CC2)cc1 (stereo not drawn)
  RP-LC retention time: 695 s

## COC(=O)c1ccc(NC(=O)C2CC(=O)N(CCc3c[nH]c4ccc(F)cc34)C2)cc1 (stereo not drawn)
  RP-LC retention time: 799 s

## COc1ccc(CC(=O)NCCc2cn(C)c3ncccc23)c(Cl)c1
  RP-LC retention time: 690 s

## COc1ccc(C(=O)Nc2nc(-c3ccc4c(c3)N(C)C(=O)CO4)c(C)s2)cc1OC
  RP-LC retention time: 906 s

## COc1cccc(N2CCN(c3ccc(-c4nc(-c5cccc(F)c5)no4)cn3)CC2)c1
  RP-LC retention time: 1310 s

## Cc1ccc(NC(=O)N2CCCC(Cn3cnc4cccnc43)C2)cc1C (stereo not drawn)
  RP-LC retention time: 719 s

## CCc1ccc(S(=O)(=O)N2CCN(c3ccc4nncn4n3)CC2)s1
  RP-LC retention time: 693 s

## O=C(Cc1ccsc1)NCc1cnoc1-c1ccc(F)cc1
  RP-LC retention time: 844 s

## COCC(=O)Nc1ccc2c(c1)Sc1ncccc1C(=O)N2C(C)C
  RP-LC retention time: 645 s

## O=C(COc1ccc(Cl)cc1)Nc1ccc(-c2cn3c(n2)SCC3)cc1
  RP-LC retention time: 627 s

## CCn1cc(S(=O)(=O)Nc2ccc(C)cc2)c2cccnc21
  RP-LC retention time: 838 s

## O=C(Nc1ccc(Cn2cncn2)cc1)c1cccs1
  RP-LC retention time: 661 s

## Cc1ccc(NC(=O)N2CCC(CN3CCCC(C)C3)CC2)cc1C (stereo not drawn)
  RP-LC retention time: 645 s

## CN1CCCCCC(O)c2cc(C(=O)NC3CCCCC3)ccc21 (stereo not drawn)
  RP-LC retention time: 654 s

## Cc1ccc(OCC(=O)N2CCCCC2c2nncn2CC2CC2)cc1 (stereo not drawn)
  RP-LC retention time: 767 s

## O=C(Cn1nc(N2CCOCC2)c2ccccc2c1=O)Nc1cccc(Br)c1
  RP-LC retention time: 844 s

## NC(=O)CSc1nnc(-c2cccc(Cl)c2)o1
  RP-LC retention time: 696 s

## O=C(CN1C(=O)NC(c2ccc(Cl)cc2)C2=C1COC2=O)NCc1ccc(F)cc1 (stereo not drawn)
  RP-LC retention time: 771 s

## CCOC(=O)c1c(C)[nH]c(C(=O)N2CCC(C(C)C(=O)NCc3ccc(OC(C)C)cc3)CC2)c1C (stereo not drawn)
  RP-LC retention time: 892 s

## CC(C)CNC(=O)NC1CCN(c2nc3cccnc3n(Cc3ccccc3)c2=O)CC1
  RP-LC retention time: 964 s

## O=C1CCc2cc(S(=O)(=O)NCCCc3ccccc3)cc3c2N1CCC3
  RP-LC retention time: 879 s

## COc1ccc(CC(=O)Nc2cc(N3CCOCC3)ncn2)cc1OC
  RP-LC retention time: 582 s

## COc1ccccc1NC(=O)N(C)CCc1noc(COc2ccc(Cl)cc2)n1
  RP-LC retention time: 972 s

## Nc1nnc(-c2cccnc2)s1
  RP-LC retention time: 587 s

## O=c1[nH]cc(S(=O)(=O)N2CCc3ccccc3C2)c(=O)[nH]1
  RP-LC retention time: 663 s

## CCN1CCN(CCCNC(=O)c2sc3ncccc3c2-n2c(C)ccc2C)CC1
  RP-LC retention time: 607 s

## Cc1oc2c(C)c3oc(=O)c(CC(=O)N4CCC(C(N)=O)CC4)c(C)c3cc2c1C
  RP-LC retention time: 735 s

## COc1cccc(CNC(=O)Cc2cn(C)c3ncccc23)c1OC
  RP-LC retention time: 669 s

## O=C(NCc1ccc2c(c1)OCO2)c1nc(-c2ccnc(N3CCCCC3)c2)no1
  RP-LC retention time: 691 s

## Nc1nc(Cl)nc2c1ncn2[C@@H]1O[C@H](CO)[C@@H](O)[C@@H]1F
  RP-LC retention time: 600 s

## O=C(NCC1CCCO1)C1CCN(S(=O)(=O)c2ccc(-c3noc(C4CC4)n3)cc2)CC1 (stereo not drawn)
  RP-LC retention time: 789 s

## COCCc1noc(-c2cnc3nc(C)ccc3c2Nc2cccc(C)c2)n1
  RP-LC retention time: 728 s

## CCCCn1cnc2c(-c3ccccc3)cn(CC(=O)NCCC(C)C)c2c1=O
  RP-LC retention time: 1050 s

## Cc1ccc(-c2ncccc2CNS(=O)(=O)c2cc(F)ccc2C)cc1
  RP-LC retention time: 738 s

## COC(=O)c1c(C)[nH]c(C(=O)N2CCC(CC(=O)NCc3cccc(C)c3)CC2)c1C
  RP-LC retention time: 748 s

## O=C(NCC(O)(c1ccccc1)C(F)(F)F)c1cnccn1 (stereo not drawn)
  RP-LC retention time: 710 s

## Cn1cc(-c2nc(C(=O)NCc3cccc(Cl)c3)cs2)c2cccnc21
  RP-LC retention time: 964 s

## Cc1c(Cl)cccc1S(=O)(=O)NC1CCN(c2ccccc2)C1=O (stereo not drawn)
  RP-LC retention time: 970 s

## CCn1cc(-c2ccc(F)cc2)cc1C(=O)NCC1CCCO1 (stereo not drawn)
  RP-LC retention time: 909 s

## CCc1ccc(NC(=O)C2CCN(S(=O)(=O)c3ccc4c(c3)sc(=O)n4C(C)C)CC2)cc1
  RP-LC retention time: 1060 s

## Cc1ccc(S(=O)(=O)N2CC(=O)N(C3CCCCC3)C(C)(C(=O)NCc3ccccc3)C2)cc1 (stereo not drawn)
  RP-LC retention time: 1100 s

## CN(C(=O)Cn1nc(Cc2ccncc2)c2ccccc2c1=O)c1ccc(Br)cc1
  RP-LC retention time: 655 s

## CC1CC(=O)N(CC(=O)Nc2ccc(F)cc2F)c2ccccc2S1 (stereo not drawn)
  RP-LC retention time: 914 s

## COc1cccc(CNC(=O)CCNc2cnc3cnccn23)c1
  RP-LC retention time: 585 s

## Fc1ccc(Cc2nc(-c3ccn4cnnc4c3)no2)cc1
  RP-LC retention time: 764 s

## Cc1cccc(CN2CCCn3nc(C(=O)NCCc4cnc[nH]4)cc3C2=O)c1
  RP-LC retention time: 610 s

## CCCCCOc1ccc(Nc2nc(C(=O)OCC)nc3ccccc23)cc1
  RP-LC retention time: 789 s

## COCC(=O)Nc1nc(-c2ccc3c(c2)N(C)C(=O)CO3)c(C)s1
  RP-LC retention time: 764 s

## O=C(OCCCNc1nc(-c2ccc(Cl)cc2)nc2ccccc12)c1cccs1
  RP-LC retention time: 804 s

## O=C(Cn1nc2c(cc1=O)CCCCC2)Nc1nc(-c2ccccn2)cs1
  RP-LC retention time: 655 s

## O=C(CCCN1C(=O)c2cccc3cccc(c23)C1=O)N1CCN(c2ncccn2)CC1
  RP-LC retention time: 723 s

## Cc1nn2c(CNS(=O)(=O)c3ccc4c(c3)CCC4)c(-c3ccccc3)nc2s1
  RP-LC retention time: 936 s

## O=C(CCc1ccc2c(c1)CN(C(=O)C1COc3ccccc3O1)CCO2)N1CCOCC1 (stereo not drawn)
  RP-LC retention time: 779 s

## CSc1cccc(NC(=O)N2CCC(c3nc(C(=O)N(C)C)c(C)o3)CC2)c1
  RP-LC retention time: 732 s

## CCOc1ccc(-n2ccn3c(CCCC(=O)NCCc4c[nH]c5ccccc45)nnc3c2=O)cc1
  RP-LC retention time: 761 s

## O=C(NCc1noc(-c2ccco2)n1)c1coc(C2CC2)n1
  RP-LC retention time: 736 s

## Cc1cc(N2CCCC2)n2ncnc2n1
  RP-LC retention time: 567 s

## CC(C)NC(=O)N1CCCC(c2cccc(C(=O)NCCN3CCCCC3C)c2)C1 (stereo not drawn)
  RP-LC retention time: 624 s

## CCOC(=O)c1c(S(=O)(=O)N2CCC(C(=O)Nc3ccccc3OC)CC2)c(C)n(CC)c1C
  RP-LC retention time: 891 s

## COc1cccc(C#N)c1OCC(N)=O
  RP-LC retention time: 592 s

## Cc1ccc(-c2cc3c(=O)n(Cc4noc(CN5CCCCCCC5)n4)ccn3n2)cc1C
  RP-LC retention time: 806 s

## NC(=O)C1CCN(C(=O)c2cc(-c3ccccc3Cl)on2)CC1
  RP-LC retention time: 674 s

## Cc1nc(-c2csc(S(=O)(=O)N3CCC(C(=O)Nc4ccc5c(c4)OCCO5)CC3)c2)no1
  RP-LC retention time: 868 s
